Results from ChEMBL document CHEMBL1201862, “PubChem BioAssay data set” (2004).
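1) Cells in 96-well plates. 2) Compound, 48 h, 5 concentrations. 3) Linear interpolation between surrounding doses. 4) Unreached endpoint = highest concentration. The concentration for 50% growth inhibition is given as GI50.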 The source made the active and inactive calls. No stated cut-off is given here; in the data, active = GI50 up to about 1.1 µM and inactive = higher.

Key:
Assay in all cases: DTP human tumour cell line panel, 48 h
[1] = tested on: UACC-62
[2] = tested on: HOP-62
[3] = tested on: NCI-H23
[4] = tested on: NCI-H460
[5] = tested on: M14
[6] = tested on: SK-MEL-28
[7] = tested on: UO-31
[8] = tested on: HCT-116
[9] = tested on: SF-539
[10] = tested on: SF-295
[11] = tested on: ACHN
[12] = tested on: COLO 205
[13] = tested on: HL-60
[14] = tested on: CAKI-1
[15] = tested on: SNB-75

Measured: GI50

Nc1ccc(C(=O)NN2C(=O)C(Cl)C2c2ccccc2O)cc1 (stereo unspecified)
inactive: [1] 72.3 µM | [2] 65.2 µM | [3] > 100 µM | [4] 21.4 µM | [5] 24 µM | [6] > 100 µM | [7] 21.9 µM | [8] 60.5 µM | [9] 85.9 µM | [10] 47.2 µM | [11] 39.2 µM | [12] 43.2 µM | [13] 1.15 µM | [14] 47.8 µM | [15] 52.2 µM

O=C(/C=C/c1ccccc1O)c1cccnc1
inactive: [1] > 100 µM | [2] > 100 µM | [3] 51.3 µM | [4] > 100 µM | [5] > 100 µM | [6] > 100 µM | [7] > 100 µM | [8] > 100 µM | [9] > 100 µM | [10] > 100 µM | [11] > 100 µM | [13] > 100 µM | [14] > 100 µM | [15] > 100 µM

C(/C=C/N1CCCC1)=C\c1nc(N2CCCC2)c2ccccc2n1
inactive: [1] 21.2 µM | [2] 19.5 µM | [3] 18.2 µM | [4] 18.2 µM | [5] 18 µM | [6] 22.9 µM | [7] 15.7 µM | [8] 19.7 µM | [9] 18.3 µM | [10] 20.4 µM | [11] 16.9 µM | [12] 14.4 µM | [13] 23.4 µM | [14] 19.7 µM | [15] 16.6 µM

O=C1O[C@H](C(Cl)(Cl)Cl)N2CCCC12 (stereo partly specified)
inactive: [1] > 100 µM | [2] > 100 µM | [3] > 100 µM | [4] > 100 µM | [5] > 100 µM | [6] > 100 µM | [7] > 100 µM | [9] > 100 µM | [10] > 100 µM | [11] > 100 µM | [12] > 100 µM | [13] > 100 µM | [14] > 100 µM | [15] > 100 µM

O=C(O)CSc1nnc(-c2ccccc2)[nH]1
inactive: [1] > 100 µM | [2] > 100 µM | [3] > 100 µM | [4] > 100 µM | [5] > 100 µM | [6] > 100 µM | [7] > 100 µM | [9] > 100 µM | [10] > 100 µM | [11] > 100 µM | [12] > 100 µM | [13] > 100 µM | [14] > 100 µM | [15] 37.2 µM

Cc1cc(NS(=O)(=O)c2ccc(NC(=O)c3ccc(Cl)c4c(Nc5ccc(S(=O)(=O)Nc6cc(C)on6)cc5)c5ccccc5nc34)cc2)no1
inactive: [1] 14.4 µM | [2] 23.3 µM | [3] > 10 µM | [4] 21 µM | [5] 22.2 µM | [6] > 10 µM | [7] 15.9 µM | [8] 14.2 µM | [9] 14.9 µM | [10] 23.8 µM | [11] 19 µM | [12] 22.4 µM | [13] 21.3 µM | [14] 15.9 µM | [15] 6.46 µM

CC(C)(C)OC(=O)Cc1ccc2c(ccn2Cc2ccccc2)c1
inactive: [1] 69 µM | [2] > 100 µM | [3] 44.8 µM | [4] 68.2 µM | [5] > 100 µM | [6] > 100 µM | [7] 37.9 µM | [8] 25.2 µM | [9] 93.5 µM | [10] 75.2 µM | [11] > 100 µM | [12] 44.1 µM | [13] 28.2 µM | [14] > 100 µM | [15] > 100 µM

CN(/N=C/c1ccnc2ccccc12)c1ccc([N+](=O)[O-])cc1[N+](=O)[O-]
inactive: [1] > 100 µM | [2] 30.3 µM | [3] 91.6 µM | [4] > 100 µM | [5] > 100 µM | [6] 87.7 µM | [7] > 100 µM | [9] 89.5 µM | [10] 37.3 µM | [11] > 100 µM | [12] > 100 µM | [13] > 100 µM | [14] > 100 µM | [15] 20.7 µM

COc1ccc(C2(Cl)C(Cl)(C(F)(F)F)C2(Cl)C(F)(F)F)cc1 (stereo unspecified)
inactive: [1] 13.6 µM | [2] 18.4 µM | [3] 14.7 µM | [4] 15.9 µM | [5] 11.9 µM | [6] 15.6 µM | [7] 16 µM | [8] 11.7 µM | [9] 15.2 µM | [10] 14.8 µM | [11] 16.8 µM | [12] 15.9 µM | [13] 8.38 µM | [14] 16 µM | [15] 14.9 µM

CN(C(=O)C1CC1)C1C2CN3CCC(O2)C13 (stereo unspecified)
inactive: [1] > 100 µM | [2] > 100 µM | [3] > 100 µM | [4] > 100 µM | [5] > 100 µM | [6] > 100 µM | [7] > 100 µM | [8] > 100 µM | [9] > 100 µM | [10] > 100 µM | [11] > 100 µM | [12] > 100 µM | [13] > 100 µM | [14] > 100 µM | [15] > 100 µM
